Assay results published in US11970494B2, “6-heteroaryloxy benzimidazoles and azabenzimidazoles as JAK2 inhibitors” (Ajax Therapeutics, Inc., priority 2021, dated 2024).
In brackets after ≈: the same amount, converted by molar mass. Where two headings read alike, the source gives them in different places.

Assays:
Tyk2 = biological target: T1, Tyk2 (Homo sapiens, UniProt P29597); assay: JAK Family Selectivity Assay: Tyk2 vs JAK2 binding affinity; details: Kd TYK2 over Kd JAK2
T1 construct: made in house; host or cells: T7 phage in BL21-derived E. coli or HEK-293 cells
T1 sequence (P29597 whole entry): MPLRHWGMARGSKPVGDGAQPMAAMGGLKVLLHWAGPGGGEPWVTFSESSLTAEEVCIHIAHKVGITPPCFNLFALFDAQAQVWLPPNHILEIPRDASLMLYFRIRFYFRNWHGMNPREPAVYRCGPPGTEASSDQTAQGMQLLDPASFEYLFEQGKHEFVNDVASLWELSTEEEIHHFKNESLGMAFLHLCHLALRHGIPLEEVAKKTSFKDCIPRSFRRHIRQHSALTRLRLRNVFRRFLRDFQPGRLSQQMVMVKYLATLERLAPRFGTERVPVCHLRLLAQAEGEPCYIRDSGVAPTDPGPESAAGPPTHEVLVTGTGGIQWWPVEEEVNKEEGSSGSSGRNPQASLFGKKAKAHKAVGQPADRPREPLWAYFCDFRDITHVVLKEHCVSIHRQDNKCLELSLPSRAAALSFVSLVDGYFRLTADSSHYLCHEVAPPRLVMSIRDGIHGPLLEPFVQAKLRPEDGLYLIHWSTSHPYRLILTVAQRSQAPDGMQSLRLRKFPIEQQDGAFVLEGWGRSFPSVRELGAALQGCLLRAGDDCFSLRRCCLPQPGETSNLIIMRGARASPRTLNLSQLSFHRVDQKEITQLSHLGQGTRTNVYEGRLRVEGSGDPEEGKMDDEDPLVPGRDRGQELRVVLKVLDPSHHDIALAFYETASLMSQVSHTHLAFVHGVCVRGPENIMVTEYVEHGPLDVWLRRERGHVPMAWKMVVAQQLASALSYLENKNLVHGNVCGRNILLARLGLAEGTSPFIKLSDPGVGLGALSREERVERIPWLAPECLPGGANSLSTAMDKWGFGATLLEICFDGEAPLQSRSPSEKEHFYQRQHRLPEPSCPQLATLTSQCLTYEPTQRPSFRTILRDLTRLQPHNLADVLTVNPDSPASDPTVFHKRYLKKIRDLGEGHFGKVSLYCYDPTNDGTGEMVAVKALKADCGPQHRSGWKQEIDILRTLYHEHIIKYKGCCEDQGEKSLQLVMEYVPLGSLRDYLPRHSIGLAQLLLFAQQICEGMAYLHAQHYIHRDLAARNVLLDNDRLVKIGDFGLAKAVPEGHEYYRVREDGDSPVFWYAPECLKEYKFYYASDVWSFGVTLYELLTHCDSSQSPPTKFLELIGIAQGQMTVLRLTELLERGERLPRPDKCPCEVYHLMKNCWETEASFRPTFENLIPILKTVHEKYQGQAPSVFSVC
Method: (§1) Provided compounds are evaluated for selectivity by comparing their JAK2 binding affinity (Kd) in the above JAK2 Binding Assay with their binding affinity (Kd) for one or more other kinases. Binding affinity for other kinases is determined as follows: Kinase-tagged T7 phage strains are prepared in an E. coli host derived from the BL21 strain. E. coli are grown to log-phase and infected with T7 phage and incubated with shaking at 32° C. until lysis. The lysates are centrifuged and filtered to remove cell debris. The remaining kinases are produced in HEK-293 cells and subsequently tagged with DNA for qPCR detection. Streptavidin-coated magnetic beads are treated with biotinylated small molecule ligands for 30 minutes at room temperature to generate affinity resins for kinase assays. The liganded beads are blocked with excess biotin and washed with blocking buffer (SeaBlock (Pierce), 1% BSA, 0.05% Tween 20, 1 mM DTT) to remove unbound ligand and to reduce non-specific binding. Binding reactions are assembled by combining kinases, liganded affinity beads, and test compounds in 1× binding buffer (20% SeaBlock, 0.17×PBS, 0.05% Tween 20, 6 mM DTT). Test compounds are prepared as 111× stocks in 100% DMSO. Kds are determined using an 11-point 3-fold compound dilution series with three DMSO control points. All compounds for Kd measurements are distributed by acoustic transfer (non-contact dispensing) in 100% DMSO. The compounds are then diluted directly into the assays such that the final concentration of DMSO is 0.9%. All reactions are performed in polypropylene 384-well plate. Each has a final volume of 0.02 ml. The assay plates are incubated at room temperature with shaking for 1 hour and the affinity beads are washed with wash buffer (1×PBS, 0.05% Tween 20). The beads are then re-suspended in elution buffer (1× PBS, 0.05% Tween 20, 0.5 μM non-biotinylated affinity ligand) and incubated at room temperature with shaking for 30 minutes. The kinase concentration in the eluates is measured by qPCR. […] In some embodiments, provided compounds may be JAK2-selective over one or more of the following kinases: JAK1, JAK3, and Tyk2.

[1] = tested on: JAK2-mediated pSTAT5 signaling in constitutively active essential thrombocytopenia cells carrying the V617F mutation; assay: SET2-pSTAT5 Cellular Assay; assay type: cell-based; details: Homo sapiens
Method: This assay measures inhibition of JAK2-mediated pSTAT5 signaling in constitutively active essential thrombocytopenia cells carrying the V617F mutation. Cells are harvested from a flask into cell culture medium, and the number of cells is counted. The cells are diluted with culture medium and 100 μL of cell suspension (50000/well) is added into each well of a 96-well cell culture plate. A solution of test compound is added to the assay plate. The plates are covered with a lid and placed in a 37° C. 5% CO2 incubator for 4 hours. After 4 hours, the cells are spun, and the cell pellets are re-suspended with 100 μL cold PBS. Then, the cells are spun again at 4° C. and 4000 rpm for 5 min. PBS is aspirated, and 25 μL lysis buffer (with protease and phosphatase inhibitor cocktail) is added to each cell pellet. The cell lysate is shaken at 4° C. for 20 min to fully lyse the cells. The cell lysate is spun at 4° C. and 4000 rpm for 15 min, and then the supernatant is transferred into a new plate and stored at −80° C. Meso-scale discovery (MSD) is used to analyze plates as follows: a standard MSD plate is coated with capture antibody in PBS (40 μL/well) and is incubated at 4° C. overnight with shaking. The MSD plate is washed three times with 150 μL/well of 1×MSD Wash Buffer (Tris-buffered saline with 0.1% Tween® 20 detergent, TBST). The MSD plates are then blocked with 150 μL of blocking buffer (5% BSA in TBST) and shaken for 1 h at room temperature and 600 rpm. The MSD plate is washed three times with 150 μL/well of 1×MSD Wash Buffer (TBST). Sample lysates are then added to MSD plates (25 μL/well) and shaken for 1 h at room temperature and 600 rpm. The MSD plate is washed three times with 150 μL/well of 1×MSD Wash Buffer (TBST). Detection antibody (prepared in Antibody Detection buffer, 1% BSA in 1×TBST) is then added to the MSD plates, and they are shaken for 1 h at room temperature and 600 rpm. The MSD plate is washed three times with 150 μL/well of 1×MSD Wash Buffer (TBST). A secondary detection antibody (prepared in Antibody Detection buffer, 1% BSA in 1×TBST) is then added to the MSD plates, and they are shaken for 1 h at room temperature and 600 rpm. The MSD plate is washed three times with 150 μL/well of 1×MSD Wash Buffer (TBST). MSD reading buffer (1×) is added to the plates (150 μL/well), and they are diluted from 4× with water. The plates are imaged using an MSD imaging instrument according to the manufacturer's instructions.

JAK1 = biological target: T2, JAK1 (Homo sapiens, UniProt P23458); assay: JAK Family Selectivity Assay: JAK1 vs JAK2 binding affinity; details: Kd JAK1 over Kd JAK2
T2 construct: made in house; host or cells: T7 phage in BL21-derived E. coli or HEK-293 cells
T2 sequence (P23458 whole entry): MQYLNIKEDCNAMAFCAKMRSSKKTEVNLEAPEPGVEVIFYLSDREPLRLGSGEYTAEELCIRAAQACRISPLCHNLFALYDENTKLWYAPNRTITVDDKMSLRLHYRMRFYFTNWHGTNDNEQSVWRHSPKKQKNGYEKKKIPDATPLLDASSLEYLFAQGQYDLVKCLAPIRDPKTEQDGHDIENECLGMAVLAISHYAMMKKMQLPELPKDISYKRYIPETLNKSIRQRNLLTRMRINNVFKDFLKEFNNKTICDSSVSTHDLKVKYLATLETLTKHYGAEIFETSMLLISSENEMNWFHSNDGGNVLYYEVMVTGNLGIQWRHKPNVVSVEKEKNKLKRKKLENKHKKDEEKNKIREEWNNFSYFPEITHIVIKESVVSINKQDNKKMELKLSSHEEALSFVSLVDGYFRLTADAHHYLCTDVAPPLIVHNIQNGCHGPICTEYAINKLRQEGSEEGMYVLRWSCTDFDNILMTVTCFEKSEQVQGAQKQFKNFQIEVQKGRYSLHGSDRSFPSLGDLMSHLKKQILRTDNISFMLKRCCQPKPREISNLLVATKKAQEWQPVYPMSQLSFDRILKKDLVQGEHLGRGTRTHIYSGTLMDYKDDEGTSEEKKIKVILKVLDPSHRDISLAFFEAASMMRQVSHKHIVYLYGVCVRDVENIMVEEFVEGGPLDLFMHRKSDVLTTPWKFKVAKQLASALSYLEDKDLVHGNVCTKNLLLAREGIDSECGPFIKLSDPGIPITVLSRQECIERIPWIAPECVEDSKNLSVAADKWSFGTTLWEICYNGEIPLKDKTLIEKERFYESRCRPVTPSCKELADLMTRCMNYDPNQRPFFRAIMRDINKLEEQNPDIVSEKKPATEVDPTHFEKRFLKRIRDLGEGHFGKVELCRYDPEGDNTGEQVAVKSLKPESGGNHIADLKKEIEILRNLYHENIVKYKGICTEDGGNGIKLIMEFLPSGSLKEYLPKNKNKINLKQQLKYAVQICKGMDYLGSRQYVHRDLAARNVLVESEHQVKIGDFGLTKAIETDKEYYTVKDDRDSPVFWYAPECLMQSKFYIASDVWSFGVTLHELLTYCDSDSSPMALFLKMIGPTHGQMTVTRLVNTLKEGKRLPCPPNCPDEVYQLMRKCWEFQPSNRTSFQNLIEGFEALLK
Method: as §1

Kinetic Solubility Assay = assay type: physicochemical; details: aqueous buffer, kinetic from dmso stock, kinetic solubility in PBS (pH 4.0 and pH 7.4 in method; pH of table values not stated), RT
Method: Stock solutions of test compounds are prepared in DMSO at the concentration of 10 mM, and a stock solution of control compound is prepared in DMSO at the concentration of 30 mM. Diclofenac is used as positive control in the assay. 30 μL stock solution of each compound is placed into their a 96-well rack, followed by adding 970 μL of PBS at pH 4.0 and pH 7.4 into each vial of the cap-less solubility sample plate. This study is performed in duplicate. One stir stick is added to each vial and then vials are sealed using a molded PTDE/SIL 96-Well Plate Cover. The solubility sample plate is transferred to the Thermomixer comfort plate shaker and incubated at RT for 2 hours with shaking at 1100 rpm. After 2 hours incubation, stir sticks are removed using a big magnet and all samples from the solubility sample plate are transferred into the filter plate. All the samples are filtered by vacuum manifold. The filtered samples are diluted with methanol. Samples are analyzed by LC-MS/MS and quantified against a standard of known concentration in DMSO using LC coupled with Mass spectral peak identification and quantitation. The solubility values of the test compounds are calculated as follows, wherein INJ VOL is injection volume, DF is dilution factor, and STD is standard: […]

[2] = SET-2, SET2 cells, pSTAT5, 4 hours, MSD, read-out: IC50

IC50 [1, 2]	Structure (SMILES)	TYK2/JAK2 Kd/Kd ratio (Tyk2)	JAK1/JAK2 Kd/Kd ratio (JAK1)	solubility at 2 h (Kinetic Solubility Assay)	IC50 ([1]; SET-2, 4 h)
< 125 nM	Cn1cc(C(F)(F)F)cc(Nc2nc3ncc(Oc4ccnc(NC(=O)N5CCC5)c4)c(C#N)c3n2C)c1=O [Example I-7, N-(4-((7-cyano-1-methyl-2-((1-methyl-2-oxo-5-(trifluoromethyl)-1,2-dihydropyridin-3-yl)amino)-1H-imidazo[4,5-b]pyridin-6-yl)oxy)pyridin-2-yl)azetidine-1-carboxamide]	D (Kd/Kd ratio <100)	A (Kd/Kd ratio ≥1000)	0.1 to 9 µM (≈ 0.0539 to 4.86 µg/mL)	–
–	COC(=O)Nc1cc(Oc2cnc3nc(Nc4cc5n(n4)CCC54CCC4)n(C)c3c2C#N)ccn1 [Example I-57, methyl(4-((7-cyano-2-((5′,6′-dihydrospiro[cyclobutane-1,4′-pyrrolo[1,2-b]pyrazol]-2′-yl)amino)-1-methyl-1H-imidazo[4,5-b]pyridin-6-yl)oxy)pyridin-2-yl)carbamate]	–	–	0.1 to 9 µM (≈ 0.0486 to 4.37 µg/mL)	125 to 200 nM
< 125 nM	COCC(=O)Nc1cc(Oc2cnc3nc(Nc4cc(C(F)(F)F)cn(C)c4=O)n(C)c3c2Cl)ccn1 [Example I-75, N-(4-((7-chloro-1-methyl-2-((1-methyl-2-oxo-5-(trifluoromethyl)-1,2-dihydropyridin-3-yl)amino)-1H-imidazo[4,5-b]pyridin-6-yl)oxy)pyridin-2-yl)-2-methoxyacetamide]	C (Kd/Kd ratio <300 and ≥100)	A (Kd/Kd ratio ≥1000)	0.1 to 9 µM (≈ 0.0538 to 4.84 µg/mL)	–
200 to 1000 nM	COC1CN(C(=O)Nc2cc(Oc3cnc4nc(Nc5cc6n(n5)CCCC6(F)F)n(C)c4c3C#N)ccn2)C1 [Example I-26, N-(4-((7-cyano-2-((4,4-difluoro-4,5,6,7-tetrahydropyrazolo[1,5-a]pyridin-2-yl)amino)-1-methyl-1H-imidazo[4,5-b]pyridin-6-yl)oxy)pyridin-2-yl)-3-methoxyazetidine-1-carboxamide]	–	–	9 to 100 µM (≈ 4.95 to 55.1 µg/mL)	–
200 to 1000 nM	CC(=O)Nc1cc(Oc2cnc3nc(Nc4cc5n(n4)CCOCC5(C)C)n(C)c3c2C#N)ccn1 [Example I-118, N-(4-((7-cyano-2-((4,4-dimethyl-4,5,7,8-tetrahydropyrazolo[1,5-d][1,4]oxazepin-2-yl)amino)-1-methyl-1H-imidazo[4,5-b]pyridin-6-yl)oxy)pyridin-2-yl)acetamide]	–	–	9 to 100 µM (≈ 4.39 to 48.8 µg/mL)	–
–	CN(C)C(=O)Nc1cc(Oc2cnc3nc(Nc4cc5n(n4)CCC54CCC4)n(C)c3c2C#N)ccn1 [Example I-56, 3-(4-((7-cyano-2-((5′,6′-dihydrospiro[cyclobutane-1,4′-pyrrolo[1,2-b]pyrazol]-2′-yl)amino)-1-methyl-1H-imidazo[4,5-b]pyridin-6-yl)oxy)pyridin-2-yl)-1,1-dimethylurea]	–	–	9 to 100 µM (≈ 4.49 to 49.9 µg/mL)	125 to 200 nM
200 to 1000 nM	CC(=O)Nc1cc(Oc2cnc3nc(Nc4cc5n(n4)CCCC54CC4)n(C)c3c2C#N)ccn1 [Example I-114, N-(4-((7-cyano-2-((6′,7′-dihydro-5′H-spiro[cyclopropane-1,4′-pyrazolo[1,5-a]pyridin]-2′-yl)amino)-1-methyl-1H-imidazo[4,5-b]pyridin-6-yl)oxy)pyridin-2-yl)acetamide]	–	–	9 to 100 µM (≈ 4.23 to 47 µg/mL)	–
1000 to 5000 nM	Cn1c(Nc2cc3n(n2)CCOC3(C)C)nc2ncc(Oc3ccnc(NC(=O)O[C@@H]4CCOC4)c3)c(C#N)c21 [Example I-48, (R)-Tetrahydrofuran-3-yl(4-((7-cyano-2-((4,4-dimethyl-6,7-dihydro-4H-pyrazolo[5,1-c][1,4]oxazin-2-yl)amino)-1-methyl-1H-imidazo[4,5-b]pyridin-6-yl)oxy)pyridin-2-yl)carbamate]	–	–	0.1 to 9 µM (≈ 0.0546 to 4.91 µg/mL)	–

Structure (SMILES)	IC50 [1, 2]	TYK2/JAK2 Kd/Kd ratio (Tyk2)	JAK1/JAK2 Kd/Kd ratio (JAK1)	solubility at 2 h (Kinetic Solubility Assay)	IC50 ([1]; SET-2, 4 h)
COC1CN(C(=O)Nc2cc(Oc3cnc4nc(Nc5cc6n(n5)CCC65CCC5)n(C)c4c3C#N)ccn2)C1 [Example I-61, N-(4-((7-cyano-2-((5′,6′-dihydrospiro[cyclobutane-1,4′-pyrrolo[1,2-b]pyrazol]-2′-yl)amino)-1-methyl-1H-imidazo[4,5-b]pyridin-6-yl)oxy)pyridin-2-yl)-3-methoxyazetidine carboxamide]	< 125 nM	D (Kd/Kd ratio <100)	A (Kd/Kd ratio ≥1000)	0.1 to 9 µM (≈ 0.0541 to 4.87 µg/mL)	–
COCC(=O)Nc1cc(Oc2cnc3nc(Nc4cc(C(F)(F)F)cn(C)c4=O)n(C)c3c2C#N)ccn1 [Example I-79, N-(4-((7-cyano-1-methyl-2-((1-methyl-2-oxo-5-(trifluoromethyl)-1,2-dihydropyridin-3-yl)amino)-1H-imidazo[4,5-b]pyridin-6-yl)oxy)pyridin-2-yl)-2-methoxyacetamide]	< 125 nM	C (Kd/Kd ratio <300 and ≥100)	C (Kd/Kd ratio <300 and ≥100)	0.1 to 9 µM (≈ 0.0528 to 4.76 µg/mL)	–
CO[C@@H]1CCN(C(=O)Nc2cc(Oc3cnc4nc(Nc5cc6n(n5)CCC65CCC5)n(C)c4c3C#N)ccn2)C1 [Example I-60, (R)-N-(4-((7-cyano-2-((5′,6′-dihydrospiro[cyclobutane-1,4′-pyrrolo[1,2-b]pyrazol]-2′-yl)amino)-1-methyl-1H-imidazo[4,5-b]pyridin-6-yl)oxy)pyridin-2-yl)-3-methoxypyrrolidine-1-carboxamide]	< 125 nM	D (Kd/Kd ratio <100)	B (Kd/Kd ratio <1000 and ≥300)	9 to 100 µM (≈ 4.99 to 55.5 µg/mL)	–
COCCOC(=O)Nc1cc(Oc2cnc3nc(Nc4cc5n(n4)CCC54CCC4)n(C)c3c2C#N)ccn1 [Example I-62, 2-methoxyethyl(4-((7-cyano-2-((5′,6′-dihydrospiro[cyclobutane-1,4′-pyrrolo[1,2-b]pyrazol]-2′-yl)amino)-1-methyl-1H-imidazo[4,5-b]pyridin-6-yl)oxy)pyridin-2-yl)carbamate]	< 125 nM	C (Kd/Kd ratio <300 and ≥100)	B (Kd/Kd ratio <1000 and ≥300)	0.1 to 9 µM (≈ 0.053 to 4.77 µg/mL)	–
